Experimental data from patent US8372967B2, “Compounds and methods for modulating expression of GCCR” (Isis Pharmaceuticals, Inc., priority 2006, dated 2013).
Strand notation (5' to 3'): a small letter for the sugar, then the base; units joined by * are phosphorothioate-linked, units joined directly phosphodiester-linked; [ ] holds rarer units or linkages, { } end groups; capitals alone tell only the bases. e = 2'-O-(2-methoxyethyl) (MOE); l = locked nucleic acid (LNA); [5mC] = 5-methylcytosine; d = 2'-deoxy (DNA)

How the values were obtained:
[1] = test system: rat DGAT2 mRNA; test: Dose-dependent inhibition of DGAT2 in A10 cells (Tables 82, 83); type: cell-based
Protocol: Additional short antisense compounds targeted to DGAT2 mRNA were tested in vitro in a dose-response experiment. A10 cells were prepared as described above and treated with 6.25, 12.5, 25.0, 50.0, 100.0, and 200.0 nM short antisense compounds to determine if DGAT2 inhibition occurs in a dose-dependent manner. […] Results are presented as percent inhibition, relative to untreated control cells.
Additional short antisense compounds targeted to DGAT2 mRNA were tested in vitro. A10 cells were prepared as described above and treated with 0.62, 1.85, 5.56, 16.67, 50.0, and 150.0 nM short antisense compounds to determine if DGAT2 inhibition occurs in a dose-dependent manner. DGAT2 mRNA was measured using quantitative real-time PCR, as described herein. […] Results are presented as percent inhibition of rat DGAT2, relative to untreated control cells.

[2] = test system: DGAT2 mRNA; test: Antisense inhibition of DGAT2 in A10 cells, 75 nM (Table 81); type: cell-based, rat; conditions: approximately 24 hours
Protocol: Short antisense compounds targeted to a DGAT2 nucleic acid were tested for their effects on DGAT2 mRNA in vitro. Cultured A10 cells in a 96-well plate were treated with 75 nM of short antisense compound. After a treatment period of approximately 24 hours, RNA was isolated from the cells and DGAT2 mRNA levels were measured by quantitative real-time PCR, as described herein. DGAT2 mRNA levels were adjusted according to total RNA content as measured by RIBOGREEN®. Results are presented as percent inhibition of DGAT2, relative to untreated control cells in Table 81.

[3] = HbA1c status in ZDF rat (Table 72); type: in vivo; conditions: ZDF rat, 400 nM/kg i.p. once a week
Protocol: ISIS 388625, 388626 and control oligo ISIS 388628 were analyzed for their effect on ZDF rat plasma glucose levels and HbA1c. The leptin receptor deficient Zucker diabetic fatty (ZDF) rat is a useful model for the investigation of type 2 diabetes. Diabetes develops spontaneously in these male rats at ages 8-10 weeks, and is associated with hyperphagia, polyuria, polydipsia, and impaired weight gain, symptoms which parallel the clinical symptoms of diabetes (Phillips M S, et al., 1996, Nat Genet. 13, 18-19). Six week old ZDF rats were injected intraperitoneally with short antisense compound at a dose of 400 nM/kg once a week for twelve weeks. Data are illustrated in Tables 71 and 72.

[4] = test system: rat SGLT2 mRNA; test: Rat SGLT2 mRNA in kidney, 1-10-1 and 1-10-2 MOE gapmers, Sprague-Dawley rats (Table 63); type: in vivo
Text: 1-10-1 and 1-10-2 MOE gapmer antisense compounds, provided in Table 62, were designed to target different regions of the mouse or rat SGLT2 RNA. All short antisense compounds in Table 62 are chimeric oligonucleotides (“gapmers”) either 12 or 13 nucleotides in length, composed of a central “gap” segment consisting of ten 2′-deoxynucleotides, which are flanked on the 5′ side by a one-nucleoside “wing” and on the 3′ side by a two or one-nucleotide “wing”. […] All cytidine residues are 5-methylcytidines.
The short antisense compounds were analyzed for their effect on rat SGLT2 mRNA levels. Data are ranges taken from three experiments in which Male Sprague-Dawley rats (170-200 g) were dosed twice per week for three weeks with 450, 150 or 50 nmol/kg of either a 1-10-1 or 1-10-2 MOE gapmer given by intraperitoneal injection. Rats were sacrificed 48 hours following last administration and evaluated for SGLT2 mRNA levels in kidney. Target levels were determined by RT, real-time PCR as described by other examples herein. PCR results were normalized to an internal ISIS control.

[5] = test system: mouse SGLT2 mRNA; test: Mouse SGLT2 mRNA in kidney, MOE versus Methyleneoxy BNA gapmers (Table 69); type: in vivo; conditions: Balb/c mouse kidney
Protocol: The effect of ISIS 3796921-10-1 MOE gapmer and ISIS 3886252-8-2 MOE gapmer are compared with the effect of ISIS 3921701-10-1 Methyleneoxy BNA Gapmer and ISIS 3921732-8-2 Methyleneoxy BNA Gapmer (see Table 69) on mouse SGLT2 mRNA levels in vivo. Data are taken from three experiments in which male 6-week old Balb/c mice were dosed twice per week for three weeks with 5, 25 and 125 nmol/kg of either the ISIS 3796921-10-1 MOE gapmer or the ISIS 3886252-8-2 MOE gapmer given by intraperitoneal injection. Mice were sacrificed 48 hours following last administration and evaluated for SGLT2 mRNA levels in kidney. Target levels were determined by RT, real-time PCR as described by other examples herein. PCR results were normalized to an internal ISIS control. The data are expressed as percent change (“+” indicates an increase, “−” indicates a decrease) relative to saline treated animals and are illustrated in Table 69.

[6] = 5 nmol/kg i.p. twice per week for three weeks
[7] = 25 nmol/kg i.p. twice per week for three weeks
[8] = 125 nmol/kg i.p. twice per week for three weeks

Row | Substance | percent inhibition of rat DGAT2 ([1]; 0.62 nM (Table 83)) [%] | percent inhibition of rat DGAT2 ([1]; 1.85 nM (Table 83)) [%] | percent inhibition of rat DGAT2 ([1]; 5.56 nM (Table 83)) [%] | percent inhibition of rat DGAT2 ([1]; 16.67 nM (Table 83)) [%] | percent inhibition of rat DGAT2 ([1]; 50 nM (Table 83)) [%] | percent inhibition of rat DGAT2 ([1]; 150 nM (Table 83)) [%] | % Control [2] [% Control] | further results
1 | 372524 (antisense eG*e[5mC]*e[5mC]*dA*dG*dG*d[5mC]*dA*dT*dG*dG*dA*dG*e[5mC]*eT*e[5mC]) [compound 372524] | 7 | 0 | 5 | 30 | 68 | 91 | 21 | –
2 | 372530 (antisense eT*e[5mC]*eG*dG*d[5mC]*d[5mC]*d[5mC]*d[5mC]*dA*dG*dG*dA*dG*e[5mC]*e[5mC]*e[5mC]) [compound 372530] | 0 | 2 | 0 | 10 | 38 | 78 | 35 | –
3 | 372546 (antisense eT*eT*eG*dG*dT*d[5mC]*dT*dT*dG*dT*dG*dA*dT*eT*eG*eT) [compound 372546] | 0 | 2 | 11 | 4 | 48 | 78 | 34 | –
4 | 372563 (antisense eA*eG*d[5mC]*d[5mC]*dA*dG*dG*dT*dG*dA*d[5mC]*dA*eG*eA) [compound 372563] | 0 | 0 | 0 | 1 | 4 | 46 | 48 | –
5 | 372578 (antisense eT*eG*dT*dG*dT*d[5mC]*dT*dT*d[5mC]*dA*d[5mC]*d[5mC]*eA*eG) [compound 372578] | 0 | 0 | 0 | 2 | 7 | 42 | 59 | –
6 | 372580 (antisense eG*eG*dT*dT*dG*dT*dG*dT*dG*dT*d[5mC]*dT*eT*e[5mC]) [compound 372580] | 0 | 5 | 5 | 3 | 16 | 42 | 48 | –
7 | 372586 (antisense eG*eT*dT*d[5mC]*d[5mC]*dT*dG*dG*dT*dG*dG*dT*e[5mC]*eA) [compound 372586] | 0 | 0 | 0 | 0 | 7 | 55 | 40 | percent inhibition of DGAT2 ([1]; 6.25 nM (Table 82)): 19%; percent inhibition of DGAT2 ([1]; 12.5 nM (Table 82)): 0%; percent inhibition of DGAT2 ([1]; 50.0 nM (Table 82)): 22%; percent inhibition of DGAT2 ([1]; 100.0 nM (Table 82)): 45%; percent inhibition of DGAT2 ([1]; 200.0 nM (Table 82)): 77%
8 | 372594 (antisense eA*e[5mC]*dA*dG*dA*dA*dG*dG*d[5mC]*dA*d[5mC]*d[5mC]*e[5mC]*eA) [compound 372594] | 0 | 0 | 0 | 0 | 2 | 15 | 77 | –
9 | 372602 (antisense e[5mC]*e[5mC]*dA*dG*dG*d[5mC]*dA*dT*dG*dG*dA*dG*e[5mC]*eT) [compound 372602] | 0 | 0 | 10 | 0 | 19 | 51 | 39 | percent inhibition of DGAT2 ([1]; 6.25 nM (Table 82)): 0%; percent inhibition of DGAT2 ([1]; 12.5 nM (Table 82)): 0%; percent inhibition of DGAT2 ([1]; 50.0 nM (Table 82)): 18%; percent inhibition of DGAT2 ([1]; 100.0 nM (Table 82)): 47%; percent inhibition of DGAT2 ([1]; 200.0 nM (Table 82)): 76%
10 | 372618 (antisense eG*eT*dG*dG*dT*dA*d[5mC]*dA*dG*dG*dT*d[5mC]*eG*eA) [compound 372618] | 0 | 0 | 0 | 0 | 30 | 60 | 29 | percent inhibition of DGAT2 ([1]; 6.25 nM (Table 82)): 0%; percent inhibition of DGAT2 ([1]; 12.5 nM (Table 82)): 5%; percent inhibition of DGAT2 ([1]; 50.0 nM (Table 82)): 27%; percent inhibition of DGAT2 ([1]; 100.0 nM (Table 82)): 65%; percent inhibition of DGAT2 ([1]; 200.0 nM (Table 82)): 80%
11 | 372624 (antisense eT*eG*dG*dT*d[5mC]*dT*dT*dG*dT*dG*dA*dT*eT*eG) [compound 372624] | 0 | 0 | 0 | 1 | 16 | 38 | 56 | –
12 | 388625 (eT*eG*dT*dT*d[5mC]*d[5mC]*dA*dG*d[5mC]*d[5mC]*e[5mC]*eA) [compound 388625] | – | – | – | – | – | – | – | Percentage HbA1c ([3]; Day 40): 6.5%; Percentage HbA1c ([3]; Day 55): 5.8%; Percentage HbA1c ([3]; Day 68): 4.3%
13 | 388628 (eT*eA*dG*d[5mC]*d[5mC]*dG*d[5mC]*d[5mC]*d[5mC]*dA*e[5mC]*eA) [compound 388628] | – | – | – | – | – | – | – | Percentage HbA1c ([3]; Day 40): 8.0%; Percentage HbA1c ([3]; Day 55): 9.1%; Percentage HbA1c ([3]; Day 68): 7.8%
14 | ISIS 382675 (eT*dA*dG*d[5mC]*d[5mC]*dA*d[5mC]*d[5mC]*dA*dA*d[5mC]*eT*eG) | – | – | – | – | – | – | – | % change in SGLT2 expression relative to saline ([4]; 50 nmol/kg i.p. twice per week for three weeks): −50%; % change in SGLT2 expression relative to saline ([4]; 150 nmol/kg i.p. twice per week for three weeks): −65%; % change in SGLT2 expression relative to saline ([4]; 450 nmol/kg i.p. twice per week for three weeks): −80%
15 | ISIS 392170: 1-10-1 Methyleneoxy BNA Gapmer, SGLT2 (lT*dG*dT*dT*d[5mC]*d[5mC]*dA*dG*d[5mC]*d[5mC]*d[5mC]*lA) | – | – | – | – | – | – | – | SGLT2 mRNA, percent change relative to saline treated animals [5, 6]: −23%; SGLT2 mRNA, percent change relative to saline treated animals [5, 7]: −54%; SGLT2 mRNA, percent change relative to saline treated animals [5, 8]: −69%
16 | ISIS 392173: 2-8-2 Methyleneoxy BNA Gapmer, SGLT2 (lT*lG*dT*dT*d[5mC]*d[5mC]*dA*dG*d[5mC]*d[5mC]*l[5mC]*lA) | – | – | – | – | – | – | – | SGLT2 mRNA, percent change relative to saline treated animals [5, 6]: −44%; SGLT2 mRNA, percent change relative to saline treated animals [5, 7]: −57%; SGLT2 mRNA, percent change relative to saline treated animals [5, 8]: −75%
